Results reported in PubChem BioAssay AID1963958 (Molecular Pharmacology Branch, DTP, NCI, 2024).

Tested on: MDA-MB-231 multicell spheroids, viability
Assay: Anticancer human tumor MDA-MB-231 cell line growth inhibition [PI3K];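 further: spheroids exposed to agents for seven days before reading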;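 on viability, T/C: percent of vehicle control luminescence with DMSO treated spheroids as 100%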
Conditions: for IC50: curve of first compound; for viability, T/C: stronger effect = lower value; active means viability on the fitted dose curve at most 10% of control; inactive means the rest
From the text: Combinatorial screen of targeted agents with the PI3K inhibitors inavolisib, alpelisib, duvelisib, and copanlisib in multi-cell type tumor spheroids
A high-throughput screen of multi-cell type tumor spheroids was designed to identify active combinations of targeted small molecules and PI3K pathway inhibitors. Complex spheroids include a stromal component modeled by human endothelial cells (HUVEC) and fibroblasts modeled by human mesenchymal stem cells (MSCs). The concentration ranges selected for each drug and investigational agent were based upon clinically achievable concentrations if the clinical Cmax of the agent was known.
Compounds. The drugs and investigational agents: inavolisib (NSC800729), alpelisib (NSC765974), duvelisib (NSC772469), copanlisib (NSC816437), ipatasertib (NSC767898), afuresertib (NSC778305), talazoparib (NSC767125), sapanisertib (NSC764658), selumetinib (NSC741078), tovorafenib (DAY101, NSC766906), vemurafenib (NSC761431), ravoxertinib (NSC781343), sotorasib (NSC818433), MRTX1133 (NSC 836407), abemaciclib (NSC 768073), palbociclib (NSC758247), venetoclax (NSC 766270), SY5609 (NSC837396), enzalutamide (NSC755605), and darolutamide (NSC825331), were obtained from the National Cancer Institute (NCI) Developmental Therapeutics Program Chemical Repository. The FDA-approved anticancer drug set is available from the NCI Developmental Therapeutics Program. […] The stock solutions were prepared in dimethyl sulfoxide (DMSO, Sigma-Aldrich, St. Louis, MO, cat. D2650) at 800-fold the tested concentration and stored at -70 degrees C prior to their use. All drugs and investigational agents were tested over a range starting from a high concentration at or near the clinical Cmax and decreasing in half-log increments. If the clinical Cmax for an agent had not been determined, the highest concentration tested was 10 microM.
Cell Culture. All cells were maintained in an incubator at 37 degrees C and 5% CO2 with 95% humidity. The PDC lines were cultured according to standard operating procedures established by the NCI PDMR (https://pdmr.cancer.gov/sops/default.htm). All PDCs were thawed and cultured in Matrigel-coated flasks prepared with a working solution of 1X Ham's F-12 nutrient mix, without supplementation (Invitrogen, Waltham, MA, cat. 11765054), 100 U/mL penicillin-streptomycin (Invitrogen, cat. 15140122), and 2.5% Matrigel (Corning Inc., Corning, NY, cat. 354248) for the first three passages. The 354836-022-R-J1-PDC, 475296-252-R-J1-PDC, and 997726-040-R-J2-PDC lines were cultured in 6A media, which includes advanced DMEM/F-12 (Thermo Fisher Scientific, cat. 12634028), 10 mM HEPES (Thermo Fisher Scientific, cat. 15630080), 1X GlutaMAX supplement (Thermo Fisher Scientific, cat. 35050061), 0.1 mg/mL primocin (InvivoGen, San Diego, CA, cat. ant-pm-2), 10% defined fetal bovine serum, heat inactivated (HyClone Laboratories Inc., Logan, UT, cat. SH30070.03HI), 50% L-WRN conditioned media (ATCC, cat. CRL-3276), 1.25 mM N-Acetyl-L-cysteine (Sigma-Aldrich, cat. A9165), 10 mM nicotinamide (Sigma-Aldrich, cat. N0636), 1X B-27 supplement (Thermo Fisher Scientific, cat. 17504044), 1X N-2 supplement (Thermo Fisher Scientific, cat. 17502048), and 10 microM Y-27632 dihydrochloride (Tocris Bioscience, Bristol, United Kingdom, cat. 1254). The 624824-186-R-J2-PDC line was cultured in 6C/Colon 1B media, which includes all 6A media components plus 50 ng/mL human EGF recombinant protein (Thermo Fisher Scientific, cat. PHG0311). […]

[1] = second compound 0.0316 µM, first compound 0.0316 µM
[2] = second compound 0.0316 µM, first compound 0.1 µM
[3] = second compound 0.0316 µM, first compound 0.316 µM
[4] = second compound 0.0316 µM, first compound 1 µM
[5] = second compound 0.1 µM, first compound 0.0316 µM
[6] = second compound 0.1 µM, first compound 0.1 µM
[7] = second compound 0.1 µM, first compound 0.316 µM
[8] = second compound 0.1 µM, first compound 1 µM
[9] = second compound 0.316 µM, first compound 0.0316 µM
[10] = second compound 0.316 µM, first compound 0.1 µM
[11] = second compound 0.316 µM, first compound 0.316 µM
[12] = second compound 0.316 µM, first compound 1 µM
[13] = second compound 1 µM, first compound 0.0316 µM
[14] = second compound 1 µM, first compound 0.1 µM
[15] = second compound 1 µM, first compound 0.316 µM
[16] = second compound 1 µM, first compound 1 µM

CCN1CCN(Cc2ccc(Nc3ncc(F)c(-c4cc(F)c5nc(C)n(C(C)C)c5c4)n3)nc2)CC1 + COc1c(OCCCN2CCOCC2)ccc2c3n(c(=NC(=O)c4cnc(N)nc4)nc12)CCN3
< 3.16 nM: IC50 (second compound 0.1 µM) | IC50 (second compound 0.316 µM) | IC50 (second compound 1 µM)
inactive: viability, T/C (second compound 0.00316 µM, first compound 0.00316 µM) 89% | viability, T/C (second compound 0.00316 µM, first compound 0.01 µM) 79.4% | viability, T/C (second compound 0.00316 µM, first compound 0.0316 µM) 72.3% | viability, T/C (second compound 0.00316 µM, first compound 0.1 µM) 52.1% | viability, T/C (second compound 0.00316 µM, first compound 0.316 µM) 47.7% | viability, T/C (second compound 0.00316 µM, first compound 1 µM) 45.1% | viability, T/C (second compound 0.01 µM, first compound 0.00316 µM) 77.8% | viability, T/C (second compound 0.01 µM, first compound 0.01 µM) 66.2% | viability, T/C (second compound 0.01 µM, first compound 0.0316 µM) 57.2% | viability, T/C (second compound 0.01 µM, first compound 0.1 µM) 46.5% | viability, T/C (second compound 0.01 µM, first compound 0.316 µM) 39.7% | viability, T/C (second compound 0.01 µM, first compound 1 µM) 40.2% | viability, T/C (second compound 0.0316 µM, first compound 0.00316 µM) 56% | viability, T/C (second compound 0.0316 µM, first compound 0.01 µM) 50.9% | viability, T/C [1] 43.9% | viability, T/C [2] 38.4% | viability, T/C [3] 35.9% | viability, T/C [4] 39.6% | viability, T/C (second compound 0.1 µM, first compound 0.00316 µM) 45.1% | viability, T/C (second compound 0.1 µM, first compound 0.01 µM) 40% | viability, T/C [5] 33.4% | viability, T/C [6] 27.9% | viability, T/C [7] 31% | viability, T/C [8] 38.1% | viability, T/C (second compound 0.316 µM, first compound 0.00316 µM) 30% | viability, T/C (second compound 0.316 µM, first compound 0.01 µM) 27.2% | viability, T/C [9] 24.1% | viability, T/C [10] 22.4% | viability, T/C [11] 28% | viability, T/C [12] 42.7% | viability, T/C (second compound 1 µM, first compound 0.00316 µM) 24.6% | viability, T/C (second compound 1 µM, first compound 0.01 µM) 22.5% | viability, T/C [13] 22.4% | viability, T/C [14] 25.5% | viability, T/C [15] 43.7% | viability, T/C [16] 83.2%
8.45 nM: IC50 (second compound 0.0316 µM)
195 nM: IC50 (second compound 0.00316 µM)
65.4 nM: IC50 (second compound 0.01 µM)

CC(Cn1ccc(-c2ccc(C#N)c(Cl)c2)n1)NC(=O)c1cc(C(C)O)[nH]n1 (centres undefined) + CC(Nc1ncnc2nc[nH]c12)c1cc2cccc(Cl)c2c(=O)n1-c1ccccc1
< 31.6 nM: IC50 (second compound 10 µM)
inactive: viability, T/C [1] 100% | viability, T/C [2] 95.7% | viability, T/C [3] 99.6% | viability, T/C [4] 98.5% | viability, T/C (second compound 0.0316 µM, first compound 3.16 µM) 96% | viability, T/C (second compound 0.0316 µM, first compound 10 µM) 82.3% | viability, T/C [5] 92.9% | viability, T/C [6] 98.3% | viability, T/C [7] 97.9% | viability, T/C [8] 95.2% | viability, T/C (second compound 0.1 µM, first compound 3.16 µM) 92.4% | viability, T/C (second compound 0.1 µM, first compound 10 µM) 78.4% | viability, T/C [9] 81.9% | viability, T/C [10] 93% | viability, T/C [11] 95% | viability, T/C [12] 88.5% | viability, T/C (second compound 0.316 µM, first compound 3.16 µM) 87.9% | viability, T/C (second compound 0.316 µM, first compound 10 µM) 75.7% | viability, T/C [13] 70.6% | viability, T/C [14] 79.4% | viability, T/C [15] 78.4% | viability, T/C [16] 79.5% | viability, T/C (second compound 1 µM, first compound 3.16 µM) 72.2% | viability, T/C (second compound 1 µM, first compound 10 µM) 64.5% | viability, T/C (second compound 3.16 µM, first compound 0.0316 µM) 61.3% | viability, T/C (second compound 3.16 µM, first compound 0.1 µM) 61% | viability, T/C (second compound 3.16 µM, first compound 0.316 µM) 61.4% | viability, T/C (second compound 3.16 µM, first compound 1 µM) 56.2% | viability, T/C (second compound 3.16 µM, first compound 3.16 µM) 56.9% | viability, T/C (second compound 3.16 µM, first compound 10 µM) 49.2% | viability, T/C (second compound 10 µM, first compound 0.0316 µM) 47% | viability, T/C (second compound 10 µM, first compound 0.1 µM) 44.3% | viability, T/C (second compound 10 µM, first compound 0.316 µM) 47.8% | viability, T/C (second compound 10 µM, first compound 1 µM) 45.5% | viability, T/C (second compound 10 µM, first compound 3.16 µM) 42% | viability, T/C (second compound 10 µM, first compound 10 µM) 36%
> 10000 nM: IC50 (second compound 0.0316 µM) | IC50 (second compound 0.1 µM) | IC50 (second compound 0.316 µM) | IC50 (second compound 1 µM) | IC50 (second compound 3.16 µM)
